# Assay results reported in patent US8497089B2, “Method to predict toxicity using the analysis of dynamic organelle behaviour” (Innovative Concepts in Drug Development (ICDD), priority 2007, dated 2013).
# Where a name gives a salt, the structure may show the parent alone.
# Experiments:
# [1] = tested on: primary human fibroblasts; assay: Variations of mitochondrial relationship with the cytoskeleton (area containing entwined mitochondria); conditions: area containing entwined mitochondria in percent of total cell area; FIG. 4 for paclitaxel
# [2] = tested on: primary human fibroblasts; assay: Variations of mitochondrial motility; assay type: cell-based; conditions: 0.1 μM, 30 minutes to 16 hours at 37° C, vs vehicle; FIG. 2
# Experimental: The speed of an organelle' movements is measured by the displacement in μm of this organelle within the lapse of two captured frames. This measure is repeated over the total length of the image capture. Speed can be expressed as an average velocity observed for an organelle over the duration of the capture or by the maximal velocity observed for an organelle over the same duration.
# The amplitude of organelle movements is expressed as a variable of the frequency of bursts in the total displacement of one organelle. A burst is defined as a sudden displacement within 30% of the maximal displacements of an organelle during the period of capture.
# The frequency of organelle movements is expressed as a number of periods during which the organelle remains immobile.
# (§1) Images were captured for 20-40 frames every 3-15 sec on a z scale spanning 1 μm around the initial center of focus. Z slides were reconstructed to generate a movie that was further analyzed for mitochondrial tracking, shape recognition, length measurements and intensities measurements.
# Mitochondrial displacement was assessed by the measure of the mitochondrial velocity, the amplitude of its movement and particularly the frequency of bursts and the frequency of movements represented by the periods of movement arrests (FIG. 2). […]
# [3] = tested on: primary human fibroblasts; assay: Variations of mitochondrial morphology (mitochondria length, doughnut formation); assay type: cell-based; conditions: 0.1 to 10 μM, in percent of the vehicle
# Description: Measured parameters can include, but are not restricted to, the length of the mitochondria allowing for an appreciation of the equilibrium between fusion and fission, the number of mitochondria in a doughnut shape per cell, the number of mitochondrial derived vesicle per cell and the number of mitochondria undergoing swelling/aggregation per cell.
# as §1
# Changes in mitochondrial morphology, i.e. in the mitochondria length and in the formation of doughnuts, were observed associated with compound toxicity in a dose dependent manner.
# The mitochondria length and the formation of doughnuts are two parameters which indicate the dynamic modulation of the fission-fusion phenomenon that occurs in the mitochondria. When very short, the mitochondria cannot assume a doughnut shape anymore, thus making the loss of the doughnut shapes a signal very significant of a toxicity than cannot be compensate by the fission-fusion dynamics. When the equilibrium of fission-fusion is impaired the fragmentation of the mitochondria is associated with neurodegeneration (Knott et al., 2008).
Compound,variation of mitochondrial relationship with the cytoskeleton [1],number of immobilization periods of mitochondria [2],variations of the mitochondrial motility [2],variations of mitochondria length ([3]; FIG. 3A),variations of the formation of doughnuts ([3]; FIG. 3B)
Cc1ccc(NC(=O)c2ccc(CN3CCN(C)CC3)cc2)cc1Nc1nccc(-c2cccnc2)n1 [imatinib mesylate],did not induce any variation,increasing the number of immobilization periods of mitochondria,induced variations of the mitochondrial motility,induced variations,induced variations
CC(=O)O[C@H]1C(=O)[C@@]2(C)[C@H]([C@H](OC(=O)c3ccccc3)[C@]3(O)C[C@H](OC(=O)[C@H](O)[C@@H](NC(=O)c4ccccc4)c4ccccc4)C(C)=C1C3(C)C)[C@]1(OC(C)=O)CO[C@@H]1C[C@@H]2O [paclitaxel],affected the relationship of mitochondria with cytoskeleton in a dose-dependent manner,,,,
